Where two headings read alike, the source gives them in different places.
Experiments:
ELO(XI) elongase = assay: Expression of ELO(XI) in yeast (feeding, GLC of FAMEs); assay type: cell-based, Xenopus laevis; settings: amounts fed: in each case 250 μM
Procedure: (§1) The yeasts were subsequently plated onto complete uracil dropout minimal medium supplemented with 2% glucose.
(§2) Fatty acid methyl esters (FAMEs) were prepared from the yeast cell sediments by acid methanolysis. […] The FAMEs were extracted by twice extracting with petroleum ether (PE). […] (holding).
(§3) Thereafter, the FAMEs were analyzed via GLC.

ELO(Ci) elongase = assay: Expression of ELO(Ci) in yeast (feeding, GLC of FAMEs); assay type: cell-based, Ciona intestinalis; settings: amounts fed: in each case 250 μM
Procedure: The yeasts were subsequently plated onto complete uracil dropout minimal medium supplemented with 2% glucose. […] Fatty acid methyl esters (FAMEs) were prepared from the yeast cell sediments by acid methanolysis. […] The FAMEs were extracted by twice extracting with petroleum ether (PE). […] (holding). […] Thereafter, the FAMEs were analyzed via GLC.

OtElo2.1 (Δ6-elongase) = assay type: cell-based, Ostreococcus tauri
BioTaurELO1 Δ5-elongase = assay type: cell-based, Thraustochytrium aureum ATCC34304
Procedure: as §1
(§4) The substrate specificity of BioTaurELO1 was determined after expression and feeding of various fatty acids (FIG. 6). […] After the fatty acids had been extracted from the yeasts, they were transmethylated and separated by gas chromatography. The elongation products originating from the two fatty acids which had been fed are identified by arrows.

TL16y2 Δ5-elongase = assay: Expression of TL16y2 in yeast (feeding experiments, GC); assay type: cell-based, Thraustochytrium ssp.
Procedure: as §1, §4
The functionality and substrate specificity of TL16y2 were determined after expression and feeding of various fatty acids. […] The feeding experiments were carried out in the same manner as described for BioTaurELO1. The substrates which have been fed can be detected in large amounts in all transgenic yeasts. […] This means that the gene TL16y2 has been expressed functionally.

OtElo2 (Δ6-elongase) = assay type: cell-based, Ostreococcus tauri
OtDes6.1 (Δ6-desaturase) = assay: Substrate specificity of the desaturase OtDes6.1 in yeast (feeding, GLC of FAMEs); settings: conversion rate of the substrate fed to yeast with pYES2-OtDes6.1; mean (n=3)
Text: The Saccharomyces cerevisiae strain 334 was transformed by electroporation (1500 v) with the vector pYES2.1-OtDes6.1. A yeast which was transformed with the blank vector pYES2 was used as the control. The transformed yeasts were selected on complete minimal dropout uracil medium (CMdum) agar plates supplemented with 2% glucose. After the selection, in each case three transformants were selected for the further functional expression.
To express the OtDes6.1 desaturase, precultures of in each case 5 ml of dropout uracil CMdum liquid medium supplemented with 2% (w/v) raffinose were inoculated with the selected transformants and incubated for 2 days at 30° C., 200 rpm. 5 ml of CMdum liquid medium (without uracil) supplemented with 2% raffinose and 300 μm of various fatty acids were then inoculated with the precultures to an OD600 of 0.05. Expression was induced by addition of 2% (w/v) galactose. The cultures were incubated for a further 96 hours at 20° C. […]
The yeasts which had been transformed with the vector pYES2-OtDes6.1 were cultured in minimal medium in the presence of the fatty acids detailed. […] Thereafter, the FAMEs were analyzed via GLC. […] The activity corresponds to the conversion rate calculated using the formula [substrate/(substrate+product)*100].

[1] = tested on: biosynthesis of DHA (OmElo3, Euglena gracilis Δ4-desaturase, Phaeodactylum tricornutum Δ5-desaturase); assay: Reconstitution of the synthesis of DHA in yeast by coexpressing OmElo3, EgD4 and PtD5; assay type: cell-based, Saccharomyces cerevisiae
Procedure: The reconstitution of the biosynthesis of DHA (22:6 ω3) was carried out starting from EPA (20:5 ω3) or stearidonic acid (18:4 ω3) by coexpressing OmElo3 together with the Euglena gracilis Δ4-desaturase or the Phaeodactylum tricornutum Δ5-desaturase and the Euglena gracilis Δ4-desaturase. To this end, the expression vectors pYes2-EgD4 and pESCLeu-PtD5 were additionally constructed. The abovementioned yeast strain which is already transformed with pYes3-OmElo3 (SEQ ID NO: 55), was then transformed further with pYes2-EgD4, or simultaneously with pYes2-EgD4 and pESCLeu-PtD5. […] The cultures were subsequently incubated for a further 120 hours at 15° C.
The additional introduction of the EEgΔ4-desaturase led to the conversion of 22:5 ω3 into 22:6 ω3 DHA. After coexpression of OmElo3 and EgD4, up to 3% DHA was detected in yeasts.
In a further coexpression experiment, OmElo3, EgD4 and a Δ5-desaturase from P. tricomutum (PtD5) were expressed together. The transgenic yeasts were fed stearidonic acid (18:4 ω3) and analyzed (FIG. 4). OmElo3 elongated the fed fatty acid 18:4 ω3 to give 20:4 ω3 (60% elongation). The latter was desaturated by PtD5 to give 20:5 ω3. The PtD5 activity amounted to 15%. Furthermore, 20:5 ω3 was elongated by […] to give 22:5 ω3. Thereafter, the newly synthesized 22:5 ω3 was desaturated to give 22:6 ω3 (DHA). Up to 0.7% of DHA was obtained in these experiments.

PtELO6 (Δ6-elongase) = assay: Substrate specificity of PtELO6 in yeast (feeding, GLC of FAMEs); assay type: cell-based, Phaeodactylum tricornutum; settings: fatty acids fed to yeast pYES2-PtELO6
OtElo1.2 (Δ5-elongase) = assay type: cell-based, Ostreococcus tauri; settings: yeast transformed with pOTE1.2 (Table 18)
OtElo1 (Δ5-elongase) = assay type: cell-based, Ostreococcus tauri; settings: yeast transformed with pOTE1 (Table 18)
OmELO2 = assay: Functional characterization of OmELO2 in yeast (fatty acid feeding, GLC of FAMEs); assay type: cell-based, Oncorhynchus mykiss; settings: expression in yeast
OmElo3 elongase = assay: Functional characterization of OmELO3 in yeast (fatty acid feeding, GLC of FAMEs); assay type: cell-based, Oncorhynchus mykiss; settings: expression in yeast, different substrates
TpELO3 (Δ6-elongase) = assay: Expression of TpELO3 in yeast (feeding, GLC of FAMEs); assay type: cell-based, Thalassiosira pseudonana
Procedure: as §1, §2, §3

[2] = 250 μm fatty acid fed (Table 7)
[3] = fatty acid fed to yeast expressing BioTaurELO1

For `CCCCCCCCCCCCCCCC(=O)O` [16:0], the “Conversion of the starting materials by ELO(XI) in %” value (“Conversion … by ELO(XI) in %” for short) (ELO(XI) elongase) was 3% and the “Conversion of the starting materials by ELO(Ci) in %” value (from here on “Conversion … by ELO(Ci) in %”) (ELO(Ci) elongase) was 0%.

`CCCCCC/C=C\CCCCCCCC(=O)O` [16:1^Δ9, palmitoleic acid] was tested, and the “Conversion … by ELO(XI) in %” value (ELO(XI) elongase) was 0% and the “Conversion … by ELO(Ci) in %” value (ELO(Ci) elongase) was 0%.

`CCCCCCCCCCCCCCCCCC(=O)O` [18:0] was tested, and the “Conversion … by ELO(XI) in %” value (ELO(XI) elongase) was 2% and the “Conversion … by ELO(Ci) in %” value (ELO(Ci) elongase) was 0%.

For `CCCCC/C=C\C/C=C\CCCCCCCC(=O)O` [18:2^Δ9,12, linoleic acid], the “Conversion … by ELO(XI) in %” value (ELO(XI) elongase) was 3% and the “Conversion … by ELO(Ci) in %” value (ELO(Ci) elongase) was 23%.

`CCCCC/C=C\C/C=C\CC/C=C\CCCC(=O)O` [18:3^Δ5,9,12, pinolenic acid (all-cis-5,9,12-octadecatrienoic acid)] was tested, and the “Conversion … by ELO(XI) in %” value (ELO(XI) elongase) was 13% and the “Conversion … by ELO(Ci) in %” value (ELO(Ci) elongase) was 38%.

For `CCCCC/C=C\C/C=C\C/C=C\CCCCC(=O)O` [18:3^Δ6,9,12, γ-linolenic acid], the “Conversion … by ELO(XI) in %” value (ELO(XI) elongase) was 12%, the “Conversion rate of OtElo2.2 (in %)” value (OtElo2.1 (Δ6-elongase)) was 55.7% and the “Conversion … by ELO(Ci) in %” value (ELO(Ci) elongase) was 10%. For the same molecule, the conversion rate (BioTaurELO1 Δ5-elongase) was 65.28%, the “conversion rate in %” value (TL16y2 Δ5-elongase; [2]) was 74.9% and the “Conversion rate of OtElo2 (in %)” value (OtElo2 (Δ6-elongase)) was 15.3%.

For `CC/C=C\C/C=C\C/C=C\CCCCCCCC(=O)O` [18:3^Δ9,12,15, α-linolenic acid], the Activity in % (OtDes6.1 (Δ6-desaturase)) was 64.6%, the “Conversion … by ELO(XI) in %” value (ELO(XI) elongase) was 3% and the “Conversion … by ELO(Ci) in %” value (ELO(Ci) elongase) was 25%.

With `CC/C=C\C/C=C\C/C=C\C/C=C\CCCCC(=O)O` [18:4^Δ6,9,12,15, stearidonic acid] the “Conversion … by ELO(XI) in %” value (ELO(XI) elongase) was 20%, the “Conversion rate of OtElo2.2 (in %)” value (OtElo2.1 (Δ6-elongase); yeast transformed with pOTE2.1 (Table 19)) was 70.4% and the “Conversion … by ELO(Ci) in %” value (ELO(Ci) elongase) was 3%. For the same molecule, the conversion rate (BioTaurELO1 Δ5-elongase; [3]) was 65.66%, the “elongation of 18:4 ω3 to 20:4 ω3” value ([1]; coexpression of OmElo3, EgD4 and PtD5, fed 18:4 ω3) was 60% and the “conversion rate in %” value (TL16y2 Δ5-elongase; [2]) was 79.4%. The “Conversion rate of OtElo2 (in %)” value (OtElo2 (Δ6-elongase); yeast transformed with pOTE2 (Table 19)) was 21.1%.

In the case of `CCCCC/C=C\C/C=C\C/C=C\CCCCCCC(=O)O` [20:3^Δ8,11,14, dihomo-γ-linolenic acid], the “Conversion … by ELO(XI) in %” value (ELO(XI) elongase) is reported as 5%, the “Conversion … by ELO(Ci) in %” value (ELO(Ci) elongase) is reported as 10% and the “conversion by PtELO6” value (PtELO6 (Δ6-elongase)) is reported as “not converted”.

For `CC/C=C\C/C=C\C/C=C\CCCCCCCCCC(=O)O` [20:3^Δ11,14,17], the “Conversion … by ELO(XI) in %” value (ELO(XI) elongase) was 13%, the “Conversion … by ELO(Ci) in %” value (ELO(Ci) elongase) was 8% and the “conversion by PtELO6” value (PtELO6 (Δ6-elongase)) was “not converted”.

`CCCCC/C=C\C/C=C\C/C=C\C/C=C\CCCC(=O)O` [20:4^Δ5,8,11,14, arachidonic acid] was tested, and the “Conversion rate of OtElo1.2 (in %)” value (OtElo1.2 (Δ5-elongase)) was 38.0%, the “Conversion … by ELO(XI) in %” value (ELO(XI) elongase) was 15% and the “Conversion … by ELO(Ci) in %” value (ELO(Ci) elongase) was 10%. The conversion rate (BioTaurELO1 Δ5-elongase; [3]) was 14.47%, the “conversion rate in %” value (TL16y2 Δ5-elongase; [2]) was 20.3% and the “Conversion rate of OtElo1 (in %)” value (OtElo1 (Δ5-elongase)) was 10.8 ± 0.6%. The “conversion by PtELO6” value (PtELO6 (Δ6-elongase)) was “not converted”.

With `CC/C=C\C/C=C\C/C=C\C/C=C\C/C=C\CCCC(=O)O` [20:5^Δ5,8,11,14,17, eicosapentaenoic acid] the “Conversion rate of OtElo1.2 (in %)” value (OtElo1.2 (Δ5-elongase)) was 68.6%, the “Conversion … by ELO(XI) in %” value (ELO(XI) elongase) was 10% and the “Conversion … by ELO(Ci) in %” value (ELO(Ci) elongase) was 15%. For the same molecule, the conversion rate (BioTaurELO1 Δ5-elongase; [3]) was 22.01%, the conversion rate (BioTaurELO1 Δ5-elongase; when feeding GLA and EPA together) was 9.99% and the “elongation of 20:5 ω3 to 22:5 ω3” value ([1]; yeast with pYes3-OmElo3 and blank vector pYes2, fed 20:5 ω3) was 65%. For the same molecule, the “conversion rate in %” value (TL16y2 Δ5-elongase; 50 μm fatty acid fed) was 41%, the “conversion rate in %” value (TL16y2 Δ5-elongase; [2]) was 8% and the “Conversion rate of OtElo1 (in %)” value (OtElo1 (Δ5-elongase)) was 46.8 ± 3.6%.

With `CCCCCC=CCC=CCC=CCC=CCCCCCC(=O)O` [22:4^Δ7,10,13,16, docosatetraenoic acid] the “Conversion … by ELO(XI) in %” value (ELO(XI) elongase) was 0%, the “Conversion … by ELO(Ci) in %” value (ELO(Ci) elongase) was 0% and the “conversion by PtELO6” value (PtELO6 (Δ6-elongase)) was “not converted”.

`CC/C=C\C/C=C\C/C=C\C/C=C\C/C=C\C/C=C\CCC(=O)O` [22:6^Δ4,7,10,13,16,19, docosahexaenoic acid] was tested, and the “Conversion … by ELO(XI) in %” value (ELO(XI) elongase) was 0% and the “Conversion … by ELO(Ci) in %” value (ELO(Ci) elongase) was 0%.

With eicosadienoic acid [20:2^Δ11,14] the “conversion by PtELO6” value (PtELO6 (Δ6-elongase)) was “not converted”.

B1: OmELO2: gene product from Oncorhynchus mykiss, SEQ ID NO: 51, expressed in yeast (protein)
chain: MASTWQSVQSMRQWILENGDKRTDPWLLVYSPMPVAIIFLLYLGVVWAGPKLMKRREPVDLKAVLIVYNFAMVCLSVYMFHEFLVTSLLSNYSYLCQPVDYSTSPLAMRMAKVCWWFFFSKVIELADTVFFILRKKNSQLTFLHVYHHGTMIFNWWAGVKYLAGGQSFFIGLLNTFVHIVMYSYYGLAALGPHTQKYLWWKRYLTSLQLLQFVLLTTHTGYNLFTECDFPDSMNAVVFAYCVSLIALFSNFYYQSYLNRKSKKT
modifications: Oncorhynchus mykiss; CDS (1)..(795): Delta-5 elongase
In the case of B1, the elongase activity (OmELO2) is reported as “no elongase activity”.

B2: OmELO3: elongase from Oncorhynchus mykiss, SEQ ID NO: 53 (protein)
chain: METFNYKLNMYIDSWMGPRDERVQGWLLLDNYPPTFALTVMYLLIVWMGPKYMRHRQPVSCRGLLLVYNLGLTILSFYMFYEMVSAVWHGDYNFFCQDTHSAGETDTKIINVLWWYYFSKLIEFMDTFFFILRKNNHQITFLHIYHHASMLNIWWFVMNWVPCGHSYFGASLNSFIHVLMYSYYGLSAVPALRPYLWWKKYITQVQLIQFFLTMSQTICAVIWPCDFPRGWLYFQIFYVITLIALFSNFYIQTYKKHLVSQKKEYHQNGSVASLNGHVNGVTPTETITHRKVRGD
modifications: Oncorhynchus mykiss; CDS (1)..(885): Delta-5 elongase
In the case of B2, the elongase activity (OmElo3 elongase) is reported as “pronounced activity”.

B3: TpELO3: Δ6-elongase from Thalassiosira pseudonana, SEQ ID NO: 45 (protein, listed as Thalassiosira pseudonana)
chain: MDAYNAAMDKIGAAIIDWSDPDGKFRADREDWWLCDFRSAITIALIYIAFVILGSAVMQSLPAMDPYPIKFLYNVSQIFLCAYMTVEAGFLAYRNGYTVMPCNHFNVNDPPVANLLWLFYISKVWDFWDTIFIVLGKKWRQLSFLHVYHHTTIFLFYWLNANVLYDGDIFLTILLNGFIHTVMYTYYFICMHTKDSKTGKSLPIWWKSSLTAFQLLQFTIMMSQATYLVFHGCDKVSLRITIVYFVSLLSLFFLFAQFFVQSYMAPKKKKSA
modifications: CDS (1)..(819): Delta-5 elongase
B3 was tested, and the “% conversion, column 5” value (TpELO3 (Δ6-elongase); fed 250 μm arachidonic acid) was 0%, the “% conversion, column 6” value (TpELO3 (Δ6-elongase); fed 250 μm eicosapentaenoic acid) was 0% and the “% conversion, column 4” value (TpELO3 (Δ6-elongase); fed 250 μm stearidonic acid) was 85%. For the same molecule, the “% conversion, column 3” value (TpELO3 (Δ6-elongase); fed 250 μm γ-linolenic acid) was 75%.
